The subject of one test is Kuramochi cells RB-WT. Kind of test: IncuCyte Kuramochi cell proliferation assay, RB-WT. The class given is cell-based. The note with it: 72 hours, cell count. The method, then: IncuCyte® assay was used to measure the effect of disclosed compounds on cell proliferation. Fluorescent microscopy images of cells were taken immediately after compound treatment and 72 hours later. Image analysis software was used to obtain cell counts as a function of compound concentration. Kuramochi cells labeled with mApple-H2B were seeded on 384-well assay-ready plates. Plates were placed in an IncuCyte® (Sartorius) and scanned at 0 and 72 hours. IncuCyte® software was used to count the number of fluorescent nuclei in each well. The fold change in cell count from 0 to 72 hours in wells treated with increasing compounds concentrations (10 pts, 1/2 log dilution, 20 µM top concentration) was normalized to DMSO control wells. The normalized cell counts were fit with dose response curves and a GI50 was calculated.

In the next test the target is CDK2/Cyclin E1 (Homo sapiens, UniProt P24941). The test can be described thus: ADP-Glo Luminescent Kinase Assay (CDK2/E1-37C). It is filed as biochemical. The note with it: 0.18 nM CDK2/Cyclin E1, 100 μM ATP, Histone H1, 37° C.; read-out: ADPGLO (CDK2/E1-37C): IC50. As for the experimental part: Inhibition of CDK2/Cyclin E1 activity by the presence of small molecules was evaluated using ADP-Glo Luminescent Kinase Assay (Promega). Activated CDK2/Cyclin E1 was incubated with its substrate Histone H1 (SignalChem H10-54N) in the kinase reaction buffer (100 μM ATP, 50 mM HEPES pH 7.5, 10 mM MgCl2, 1 mM EDTA, 2 mM DTT, 0.01% Brij35, 0.5 mg/mL BSA). Luminescence was recorded with an Envision plate reader (PerkinElmer).
Dose titrations of inhibitors in 100% DMSO were combined with 0.36 nM CDK2/Cyclin E1 in reaction buffer. The mixtures were incubated for 60 minutes at 37° C. before the addition of ATP and Histone H1 substrate to initiate the kinase reaction. The final conditions were 0.18 nM CDK2/Cyclin E1, 100 μM ATP, and […] Histone H1. The reactions were incubated at 37° C. for 90 minutes before being stopped with the addition of ADP-Glo reagent. This mixture was incubated at room temperature for 60 minutes before Kinase Detection Solution is added to generate luminescence. The stopped reactions were analyzed on an Envision plate reader. The conversion ratios were normalized to yield % activity, plotted against compound concentration, and fit to a four-parameter equation to determine the IC50 for each compound.
A general note: In ADP-Glo the light output rises with the ADP produced.

Molecules are shown by their SMILES.

Turning to `O=C(NS(=O)(=O)c1cccc(C2CCCCC2)c1)C1CN(C(=O)c2cnn(Cc3ccccc3)c2)CC12CN(C(=O)[C@H]1CC1(F)F)C2` (stereo partly drawn) [Compound I-1, 6-(1-benzyl-1H-pyrazole-4-carbonyl)-N-((3-cyclohexylphenyl)sulfonyl)-2-((R)-2,2-difluorocyclopropane-1-carbonyl)-2,6-diazaspiro[3.4]octane-8-carboxamide], the IC50 in the test with Kuramochi cells RB-WT is more than 10 µM; at CDK2/Cyclin E1, 5 to 10 µM.
The matching figures for `N#Cc1ccc(Cn2cc(C(=O)N3CC(CS(=O)(=O)Cc4cccc(-c5ccc(C(F)(F)F)cc5)n4)C4(C3)CN(C(=O)C3(C(F)(F)F)CC3)C4)cn2)cc1` (centres unmarked) [Compound I-2]: more than 10 µM and 5 to 10 µM.
`O=C(c1cnc(O)cn1)N1CC(CS(=O)(=O)Cc2cccc(-c3ccc(C(F)(F)F)cc3)n2)C2(C1)CN(C(=O)[C@H]1CC1(F)F)C2` (stereo partly drawn) [Compound I-3, (2-((R)-2,2-difluorocyclopropane-1-carbonyl)-8-((((6-(4-(trifluoromethyl)phenyl)pyridin-2-yl)methyl)sulfonyl)methyl)-2,6-diazaspiro[3.4]octan-6-yl)(5-hydroxypyrazin-2-yl)methanone]: the IC50 in the test on Kuramochi cells RB-WT and on CDK2/Cyclin E1 was more than 10 µM throughout.
For `O=C(O)c1c(COC[C@@H]2CN(C(=O)c3cnn(Cc4ccc(F)cc4)c3)CC23CN(C(=O)C2(C(F)(F)F)CC2)C3)cccc1C1CCC(F)(F)CC1` [Compound I-51, (S)-2-(4,4-difluorocyclohexyl)-6-(((6-(1-(4-fluorobenzyl)-1H-pyrazole-4-carbonyl)-2-(1-(trifluoromethyl)cyclopropanecarbonyl)-2,6-diazaspiro[3.4]octan-8-yl)methoxy)methyl) benzoic acid], the IC50 was 5 to 10 µM with Kuramochi cells RB-WT and not above 0.5 µM on CDK2/Cyclin E1.
For `O=C(O)c1c(COCC2CN(C(=O)c3cnn(Cc4ccc(C(F)(F)F)cc4)c3)CC23CN(C(=O)C2(C(F)(F)F)CC2)C3)cccc1C1CCC(C(F)(F)F)CC1` (centres unmarked) [Compound I-52, 2-(((6-(1-(4-(trifluoromethyl)benzyl)-1H-pyrazole-4-carbonyl)-2-(1-(trifluoromethyl)cyclopropane-1-carbonyl)-2,6-diazaspiro[3.4]octan-8-yl)methoxy)methyl)-6-(4-(trifluoromethyl)cyclohexyl)benzoic acid], in that order: more than 10 µM and 5 to 10 µM.
As for `O=C(NS(=O)(=O)c1cccc(C2CCOCC2)c1)C1CN(c2cc(F)cc3ncsc23)CC12CN(C(=O)C1(C(F)(F)F)CC1)C2` (centres unmarked) [Compound I-53, 6-(5-fluorobenzo[d]thiazol-7-yl)-N-((3-(tetrahydro-2H-pyran-4-yl)phenyl)sulfonyl)-2-(1-(trifluoromethyl)cyclopropane-1-carbonyl)-2,6-diazaspiro[3.4]octane-8-carboxamide], the IC50 in the test on Kuramochi cells RB-WT and at CDK2/Cyclin E1 was more than 10 µM each time.
Consider `CC1(C)C[C@@H]1C(=O)N1CC2(CN(C(=O)c3cnn(Cc4ccccc4C(=O)O)c3)C[C@H]2COCc2cccc(C3CCC(C(F)(F)F)CC3)n2)C1` (stereo partly drawn) [Compound I-54, 2-((4-((S)-2-((S)-2,2-dimethylcyclopropane-1-carbonyl)-8-(((6-(4-(trifluoromethyl)cyclohexyl)pyridin-2-yl)methoxy)methyl)-2,6-diazaspiro[3.4]octane-6-carbonyl)-1H-pyrazol-1-yl)methyl)benzoic acid], for which the results for the IC50 with Kuramochi cells RB-WT and at CDK2/Cyclin E1 were more than 10 µM and not above 0.5 µM, respectively.
On to `COC(=O)c1c(O)cc(COCC2CN(C(=O)c3cnn(Cc4ccc(C(F)(F)F)cc4)c3)CC23CN(C(=O)C2(C(F)(F)F)CC2)C3)cc1-c1ccc(C(F)(F)F)cc1` (centres unmarked) [Compound I-55, methyl 3-hydroxy-4′-(trifluoromethyl)-5-(((6-(1-(4-(trifluoromethyl)benzyl)-1H-pyrazole-4-carbonyl)-2-(1-(trifluoromethyl)cyclopropane-1-carbonyl)-2,6-diazaspiro[3.4]octan-8-yl)methoxy)methyl)-[1,1′-biphenyl]-2-carboxylate], for which the results for the IC50 in the test on Kuramochi cells RB-WT and on CDK2/Cyclin E1 were 5 to 10 µM and more than 10 µM, respectively.
For `CC1(C)C[C@@H]1C(=O)N1CC2(CN(C(=O)c3cncs3)CC2COCC(=O)N2CCC(c3ccc(C(=O)O)cc3OC3CCCCC3)CC2)C1` (stereo partly drawn) [Compound I-56, 3-(cyclohexyloxy)-4-(1-(2-((2-((S)-2,2-dimethylcyclopropane-1-carbonyl)-6-(thiazole-5-carbonyl)-2,6-diazaspiro[3.4]octan-8-yl)methoxy)acetyl)piperidin-4-yl)benzoic acid], in that order: more than 10 µM and 5 to 10 µM.
`CC(C)(C)OC(=O)c1c(COCC2CN(c3cc(F)cc4ncsc34)CC23CN(C(=O)C2(C(F)(F)F)CC2)C3)cccc1C1CCC(C(F)(F)F)CC1` (centres unmarked) [Compound I-57, tert-butyl 2-(((6-(5-fluorobenzo[d]thiazol-7-yl)-2-(1-(trifluoromethyl)cyclopropane-1-carbonyl)-2,6-diazaspiro[3.4]octan-8-yl)methoxy)methyl)-6-(4-(trifluoromethyl)cyclohexyl)benzoate]: the IC50 with Kuramochi cells RB-WT and at CDK2/Cyclin E1 was more than 10 µM each time.
In the case of `O=C(NS(=O)(=O)c1cccc(C2CCOCC2)c1)[C@@H]1CN(C(=O)c2cnn(Cc3ccc(C(F)(F)F)cc3)c2)CC12CN(C(=O)C1(C(F)(F)F)CC1)C2` [Compound I-58, (S)—N-((3-(tetrahydro-2H-pyran-4-yl)phenyl)sulfonyl)-6-(1-(4-(trifluoromethyl)benzyl)-1H-pyrazole-4-carbonyl)-2-(1-(trifluoromethyl)cyclopropane-1-carbonyl)-2,6-diazaspiro[3.4]octane-8-carboxamide], the IC50 in the test with Kuramochi cells RB-WT and on CDK2/Cyclin E1 was more than 10 µM throughout.
Consider `N#Cc1ccc(Cn2cc(C(=O)N3CC(C(=O)NS(=O)(=O)c4cccc(C5(C(F)(F)F)CC5)c4)C4(C3)CN(C(=O)C3(C(F)(F)F)CC3)C4)cn2)cc1` (centres unmarked) [Compound I-59, 6-(1-(4-cyanobenzyl)-1H-pyrazole-4-carbonyl)-2-(1-(trifluoromethyl)cyclopropane-1-carbonyl)-N-((3-(1-(trifluoromethyl)cyclopropyl)phenyl)sulfonyl)-2,6-diazaspiro[3.4]octane-8-carboxamide], for which the IC50 with Kuramochi cells RB-WT and at CDK2/Cyclin E1 was more than 10 µM in each case.
With `CC(C)(C(=O)N1CC2(CN(C(=O)c3cnn(Cc4ccc(F)cc4)c3)C[C@H]2COCc2ccccc2C(=O)O)C1)C(F)(F)F` [I′-11], the IC50 on CDK2/Cyclin E1 was more than 10 µM.
On the same count and under the same terms, to `CC(C)(C(=O)N1CC2(CN(C(=O)c3cnn(Cc4ccc(F)cc4)c3)C[C@H]2COCc2cccc(C3=CCCC3)c2C(=O)O)C1)C(F)(F)F` [I′-12] belongs not above 0.5 µM; to `CC(C)(C(=O)N1CC2(CN(C(=O)c3cnn(Cc4ccc(F)cc4)c3)C[C@H]2COCc2c(F)ccc(C3CCC(F)(F)CC3)c2C(=O)O)C1)C(F)(F)F` [I′-13], not above 0.5 µM; to `CC(C)(C(=O)N1CC2(C1)CN(c1cc(F)c(F)c3ncsc13)C[C@H]2COCc1c(F)ccc(C2CCC(F)(F)CC2)c1C(=O)O)C(F)(F)F` [I′-14, (S)-2-(((6-(4,5-difluorobenzo[d]thiazol-7-yl)-2-(3,3,3-trifluoro-2,2-dimethylpropanoyl)-2,6-diazaspiro[3.4]octan-8-yl)methoxy)methyl)-6-(4,4-difluorocyclohexyl)-3-fluorobenzoic acid], not above 0.5 µM.
On the same count and under the same terms, to `O=C(O)c1c(COC[C@@H]2CN(C(=O)c3cnn(Cc4ccc(F)cc4)c3)CC23CN(C(=O)C2CCOCC2)C3)cccc1C1CCC(F)(F)CC1` [I′-15] belongs 0.5 to 5 µM; to `CC(C)C(=O)N1CC2(CN(C(=O)c3cnn(Cc4ccc(F)cc4)c3)C[C@H]2COCc2cccc(C3CCC(F)(F)CC3)c2C(=O)O)C1` [I′-16, (S)-2-(4,4-difluorocyclohexyl)-6-(((6-(1-(4-fluorobenzyl)-1H-pyrazole-4-carbonyl)-2-isobutyryl-2,6-diazaspiro[3.4]octan-8-yl)methoxy)methyl)benzoic acid], not above 0.5 µM; to `O=C(O)c1c(COC[C@@H]2CN(C(=O)c3cnn(Cc4ccc(F)cc4)c3)CC23CN(C(=O)C24CC(C2)C4)C3)cccc1C1CCC(F)(F)CC1` [I′-17, (S)-2-(((2-(bicyclo[11.1.1]pentane-1-carbonyl)-6-(1-(4-fluorobenzyl)-1H-pyrazole-4-carbonyl)-2,6-diazaspiro[3.4]octan-8-yl)methoxy)methyl)-6-(4,4-difluorocyclohexyl)benzoic acid], not above 0.5 µM.
The same measure, in the same setting: the result for `CN(C)CCNC(=O)c1c(COC[C@@H]2CN(C(=O)c3cnn(Cc4ccc(F)cc4)c3)CC23CN(C(=O)C(C)(C)C(F)(F)F)C3)cccc1C1CCC(F)(F)CC1` [I′-18] reads not above 0.5 µM.
